Test results as given in the supplement of paper PMC10307832.

How the values were obtained:
Test in all cases: relative viability (nuclei count vs DMSO), 5 days (fraction); higher = more cells survive
Wnt-C59 + Luminespib = compound: CC1=NC=CC(=C1)C2=CC=C(C=C2)CC(=O)NC3=CC=C(C=C3)C4=CN=CC=C4 [Wnt-C59] + CCNC(=O)c1noc(-c2cc(C(C)C)c(O)cc2O)c1-c1ccc(CN2CCOCC2)cc1 [Luminespib] (partner 0.01 µM)
Summary of the method: (§1)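 Lung cancer cell lines were pin-tool dosed in 1536-well plates on the day after seeding, with either a lone drug or a fixed anchor-drug dose plus five library-drug doses (not always all listed) in √10 steps. Nuclei were counted on 4× images after 5 days. Relative viability is the ratio of treated-well to vehicle-well nuclei counts, with each value a median of duplicate plates.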

Lapatinib + Vorinostat = compound: CS(=O)(=O)CCNCc1ccc(-c2ccc3ncnc(Nc4ccc(OCc5cccc(F)c5)c(Cl)c4)c3c2)o1 [Lapatinib] + O=C(CCCCCCC(=O)Nc1ccccc1)NO [Vorinostat] (partner 1 µM)
Summary of the method: as §1

Lapatinib + Luminespib = compound: CS(=O)(=O)CCNCc1ccc(-c2ccc3ncnc(Nc4ccc(OCc5cccc(F)c5)c(Cl)c4)c3c2)o1 [Lapatinib] + CCNC(=O)c1noc(-c2cc(C(C)C)c(O)cc2O)c1-c1ccc(CN2CCOCC2)cc1 [Luminespib] (partner 0.01 µM)
Summary of the method: as §1

Lapatinib + Phenformin = compound: CS(=O)(=O)CCNCc1ccc(-c2ccc3ncnc(Nc4ccc(OCc5cccc(F)c5)c(Cl)c4)c3c2)o1 [Lapatinib] + N=C(N)NC(=N)NCCc1ccccc1 [Phenformin] (partner 250 µM)
Summary of the method: as §1

Cell Line | relative viability (Wnt-C59 + Luminespib; first compound 0.001 µM) | relative viability (Wnt-C59 + Luminespib; first compound 0.01 µM) | relative viability (Wnt-C59 + Luminespib; first compound 0.03162 µM) | relative viability (Wnt-C59 + Luminespib; first compound 0.1 µM) | relative viability (Lapatinib + Vorinostat; first compound 0.06325 µM) | relative viability (Lapatinib + Vorinostat; first compound 0.2 µM) | relative viability (Lapatinib + Vorinostat; first compound 0.6325 µM) | relative viability (Lapatinib + Vorinostat; first compound 2 µM) | relative viability (Lapatinib + Luminespib; first compound 0.06325 µM) | relative viability (Lapatinib + Luminespib; first compound 0.6325 µM) | relative viability (Lapatinib + Luminespib; first compound 2 µM) | relative viability (Lapatinib + Phenformin; first compound 0.06325 µM) | relative viability (Lapatinib + Phenformin; first compound 0.2 µM) | relative viability (Lapatinib + Phenformin; first compound 0.6325 µM) | relative viability (Lapatinib + Phenformin; first compound 2 µM) | relative viability (Lapatinib + Luminespib; first compound 0.2 µM) | relative viability (Lapatinib + Vorinostat; first compound 0.02 µM) | relative viability (Lapatinib + Luminespib; first compound 0.02 µM) | relative viability (Lapatinib + Phenformin; first compound 0.02 µM)
NCI-H522 | 1.63 | 1.2 | 0.979 | 1.13 | 0.822 | 1 | 0.839 | 0.902 | 1.09 | 1.03 | 0.794 | 0.557 | 0.554 | 0.674 | 0.546 |  |  |  | 
NCI-H650 | 0.752 | 0.751 | 0.865 | 0.718 | 0.38 | 0.434 | 0.577 | 0.538 | 0.81 | 0.862 | 0.854 | 0.467 | 0.428 | 0.456 | 0.473 | 0.729 |  |  | 
NCI-H460 | 0.0357 | 0.0331 | 0.0466 | 0.0312 | 0.67 | 0.815 | 0.715 | 0.533 | 0.035 | 0.0312 | 0.026 | 0.48 | 0.52 | 0.504 | 0.446 | 0.0347 | 0.671 | 0.0268 | 0.487
HCC-827 | 0.7 | 0.693 | 0.645 | 0.698 | 0.868 | 0.706 | 0.802 | 0.869 | 0.8 | 0.624 | 0.253 | 0.398 | 0.412 | 0.414 | 0.335 | 0.629 | 0.76 | 0.74 | 0.383
NCI-H647 | 0.145 | 0.175 | 0.149 | 0.166 | 0.403 | 0.627 | 0.498 | 0.584 | 0.309 | 0.32 | 0.14 | 0.416 | 0.517 | 0.631 | 0.219 | 0.169 | 0.627 | 0.119 | 0.352
